According to US20250163051A1, “PYRIMIDO AROMATIC RING COMPOUND AND USE THEREOF IN DRUG” (SUNSHINE LAKE PHARMA CO., LTD., priority 2022, published 2025):

Tests used:
hTLR8 = biological target: T1, hTLR8 (Homo sapiens, UniProt Q9NR97); assay: Agonistic activity on human TLR8 in HEK-Blue hTLR8 cells (QUANTI-Blue); assay type: cell-based; settings: 24 h incubation, OD650, read-out: hTLR 8 EC50
T1 construct: expressed in transfected cells; host or cells: HEK-Blue hTLR8 cells
T1 sequence (Q9NR97 27-1041): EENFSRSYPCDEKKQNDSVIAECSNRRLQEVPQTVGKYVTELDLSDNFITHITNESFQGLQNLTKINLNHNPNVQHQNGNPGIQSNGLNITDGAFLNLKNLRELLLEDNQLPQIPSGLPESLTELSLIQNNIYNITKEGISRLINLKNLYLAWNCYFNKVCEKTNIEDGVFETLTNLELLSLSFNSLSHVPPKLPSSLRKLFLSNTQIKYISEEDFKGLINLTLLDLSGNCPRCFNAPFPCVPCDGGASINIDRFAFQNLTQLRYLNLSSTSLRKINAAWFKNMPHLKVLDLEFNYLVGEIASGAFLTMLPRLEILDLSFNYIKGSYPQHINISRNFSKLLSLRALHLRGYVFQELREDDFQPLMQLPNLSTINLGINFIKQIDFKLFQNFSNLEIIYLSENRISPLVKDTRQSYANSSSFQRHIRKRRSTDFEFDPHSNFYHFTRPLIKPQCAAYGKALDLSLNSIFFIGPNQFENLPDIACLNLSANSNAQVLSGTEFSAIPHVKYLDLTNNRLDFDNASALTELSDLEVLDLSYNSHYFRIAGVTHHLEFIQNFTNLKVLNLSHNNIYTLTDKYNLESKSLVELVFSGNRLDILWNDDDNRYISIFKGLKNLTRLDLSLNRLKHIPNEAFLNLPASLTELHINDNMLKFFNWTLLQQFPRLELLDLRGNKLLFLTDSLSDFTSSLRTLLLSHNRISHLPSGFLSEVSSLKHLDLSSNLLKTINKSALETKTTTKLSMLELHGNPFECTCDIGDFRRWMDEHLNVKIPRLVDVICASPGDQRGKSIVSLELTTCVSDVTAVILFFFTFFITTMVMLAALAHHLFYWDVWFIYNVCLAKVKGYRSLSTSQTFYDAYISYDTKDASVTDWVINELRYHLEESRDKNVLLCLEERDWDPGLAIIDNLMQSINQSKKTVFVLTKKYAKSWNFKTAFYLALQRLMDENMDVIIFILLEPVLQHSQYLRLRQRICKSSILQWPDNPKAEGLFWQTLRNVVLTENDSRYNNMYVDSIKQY
Procedure: Purpose: HEK-Blue™ hTLR7 and HEK-Blue™ hTLR8 cells were used to detect the agonist and cytotoxic activities of compounds against hTLR7 and hTLR8.
The experimental steps were as shown below: • 1) Preparation of compound: The compound was prepared into a 20 mM stock solution with DMSO, and then the stock solution was diluted 3-fold in a gradient and added to a 96-well plate, for a total of 10 concentrations, with duplicate wells for each concentration. For negative control wells, 0.5 μL DMSO was added to each well. The final DMSO concentration was 0.5%. • 2) HEK-Blue™ hTLR7 or HEK-Blue™ hTLR8 cells were suspended in culture medium and then seeded into 96-well plates containing compounds at a cell count of 50,000 per well. The compounds and cells were incubated for 24 h at 37° C., 5% Co2. • 3) QUANTI-Blue was used for the detection solution: to a mixture of 1 mL of QB reagent and 1 mL of QB buffer was added 98 mL of sterile water, the mixture was mixed and dissolved, and then placed at room temperature for 10 min. • 4) Activity test of the compound: 20 μL of the culture supernatant in step 2) was added to each well of a 96-well plate containing 180 μL of QUANTI-Blue detection solution. After incubation at 37° C. for 1 h, the absorbance at 650 nm (OD650) was detected using a multifunctional microplate reader Flextation III. • 5) Detection of cell activity: The chemiluminescent signal (RLU) was detected using the multifunctional microplate reader Flextation III according to the instructions of Celltiter-Glo. • 6) Data analysis
Activity of compounds: OD650 values were analyzed using GraphPad Prism software, and the compound dose-effect curves were fitted to calculate the EC50 values of the compounds.

hTLR7 = biological target: T2, hTLR7 (Homo sapiens, UniProt Q9NYK1); assay: Agonistic activity on human TLR7 in HEK-Blue hTLR7 cells (QUANTI-Blue); assay type: cell-based; settings: 24 h incubation, OD650, read-out: hTLR 7 EC50
T2 construct: expressed in transfected cells; host or cells: HEK-Blue hTLR7 cells
T2 sequence (Q9NYK1 27-1049): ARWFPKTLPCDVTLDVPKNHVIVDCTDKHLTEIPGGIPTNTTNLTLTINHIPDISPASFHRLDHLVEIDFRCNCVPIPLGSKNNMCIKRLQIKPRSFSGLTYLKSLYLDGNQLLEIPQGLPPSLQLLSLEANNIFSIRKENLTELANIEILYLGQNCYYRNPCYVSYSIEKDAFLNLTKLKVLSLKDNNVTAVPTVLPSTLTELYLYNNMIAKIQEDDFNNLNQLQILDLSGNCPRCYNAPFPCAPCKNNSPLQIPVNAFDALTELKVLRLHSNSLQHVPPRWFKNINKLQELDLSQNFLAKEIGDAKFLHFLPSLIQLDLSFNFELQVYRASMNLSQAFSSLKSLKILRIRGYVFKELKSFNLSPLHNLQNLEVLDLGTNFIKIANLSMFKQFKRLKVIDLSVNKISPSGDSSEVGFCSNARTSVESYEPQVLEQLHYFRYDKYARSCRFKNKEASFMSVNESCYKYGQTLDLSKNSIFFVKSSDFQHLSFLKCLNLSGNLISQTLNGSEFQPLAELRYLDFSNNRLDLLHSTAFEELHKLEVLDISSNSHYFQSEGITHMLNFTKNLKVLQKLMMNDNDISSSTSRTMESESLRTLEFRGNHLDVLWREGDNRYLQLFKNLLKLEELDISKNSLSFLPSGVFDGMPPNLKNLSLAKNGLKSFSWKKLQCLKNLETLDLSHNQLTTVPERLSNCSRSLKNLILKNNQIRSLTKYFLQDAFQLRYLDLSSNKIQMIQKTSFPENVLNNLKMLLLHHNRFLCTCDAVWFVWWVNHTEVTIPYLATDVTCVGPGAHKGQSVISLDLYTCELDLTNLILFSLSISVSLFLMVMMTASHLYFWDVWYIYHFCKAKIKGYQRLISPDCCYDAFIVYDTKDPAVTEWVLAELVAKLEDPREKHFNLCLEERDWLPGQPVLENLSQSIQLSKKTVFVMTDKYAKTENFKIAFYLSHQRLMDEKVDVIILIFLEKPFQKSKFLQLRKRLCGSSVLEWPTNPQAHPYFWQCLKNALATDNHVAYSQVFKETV

[1] = Cell toxicity (Celltiter-Glo) in HEK-Blue hTLR8 cells; settings: human

| Structure (SMILES) | EC50 (hTLR8) | EC50 (hTLR7) | CC50 at 24 h [1] |
| --- | --- | --- | --- |
| CCCC[C@](C)(CO)Nc1nc(N)nc2cc(-c3cc(=O)[nH]cc3COC)ccc12 [Example 68, (R)-4-(2-Amino-4-((1-hydroxy-2-methylhexan-2-yl)amino)quinazolin-7-yl)-5-(methoxymethyl) pyridin-2(1H)-one] | 0.042 µM | 14.2 µM | > 100 µM |
| CCCC[C@](C)(CO)Nc1nc(N)nc2cc(-c3cc(=S)[nH]cc3CN(C)CCOC)cnc12 [Example 66, (R)-4-(2-Amino-4-((1-hydroxy-2-methylhexan-2-yl)amino)pyrido[3,2-d]pyrimidin-7-yl)-5-(((2-methoxyethyl)(methyl)amino)methyl)pyridine-2(1H)-thione] | 0.183 µM | > 100 µM | > 100 µM |
| C=CCCN(CC)Cc1c[nH]c(=O)cc1-c1cnc2c(N[C@@](C)(CO)CCCC)nc(N)nc2c1 [Example 18] | 0.132 µM | > 100 µM | > 100 µM |
| C=CCCN(C)C(=O)c1c[nH]c(=O)cc1-c1cnc2c(N[C@@](C)(CO)CCCC)nc(N)nc2c1 [Example 38, (R)-4-(2-Amino-4-((1-hydroxy-2-methylhexan-2-yl)amino)pyrido[3,2-d]pyrimidin-7-yl)-N-(but-3-en-1-yl)-N-methyl-6-oxo-1,6-dihydropyridine-3-carboxamide] | 2.99 µM | > 100 µM | > 100 µM |
| CCCC[C@](C)(CO)Nc1nc(N)nc2cc(-c3cc(=O)[nH]cc3CN(C)C)ccc12 [Example 67, (R)-4-(2-Amino-4-((1-hydroxy-2-methylhexan-2-yl)amino)quinazolin-7-yl)-5-((dimethylamino)methyl)pyridin-2(1H)-one] | 0.056 µM | > 100 µM | > 100 µM |
| CCCC[C@](C)(CO)Nc1nc(N)nc2cc(-c3cc(=O)[nH]cc3CN(C)CCO)ccc12 [Example 60, (R)-4-(2-Amino-4-((1-hydroxy-2-methylhexan-2-yl)amino)quinazolin-7-yl)-5-(((2-hydroxyethyl)(methyl)amino)methyl)pyridin-2(1H)-one] | 0.292 µM | > 100 µM | > 100 µM |
| CCCC[C@](C)(CO)Nc1nc(N)nc2cc(-c3cc(=O)[nH]cc3CN(C)CCNC)cnc12 [Example 20] | 2.85 µM | > 100 µM | > 100 µM |
| CCCC[C@](C)(CO)Nc1nc(N)nc2cc(-c3cc(=S)[nH]cc3CN(C)CCOC)ccc12 [Example 65, (R)-4-(2-Amino-4-((1-hydroxy-2-methylhexan-2-yl)amino)quinazolin-7-yl)-5-(((2-methoxyethyl)(methyl)amino)methyl)pyridine-2(1H)-thione] | 0.212 µM | > 100 µM | > 100 µM |
| CCCCN(CCCC)Cc1c[nH]c(=O)cc1-c1cnc2c(N[C@@](C)(CO)CCCC)nc(N)nc2c1 [Example 14] | 0.288 µM | > 100 µM | > 100 µM |
| CCCC[C@](C)(CO)Nc1nc(N)nc2cc(-c3cc(=O)[nH]cc3CN3CCOCC3)cnc12 [Example 24] | 0.239 µM | > 100 µM | > 100 µM |
| CCCC[C@](C)(CO)Nc1nc(N)nc2cc(-c3cc(=O)[nH]cc3CN3CCN(C(C)(C)C)CC3)cnc12 [Example 23] | 0.291 µM | > 100 µM | > 100 µM |
| CCCCNCc1c[nH]c(=O)cc1-c1ccc2c(N[C@@](C)(CO)CCCC)nc(N)nc2c1 [Example 58, (R)-4-(2-Amino-4-((1-hydroxy-2-methylhexan-2-yl)amino)quinazolin-7-yl)-5-((butylamino)methyl)pyridin-2(1H)-one] | 0.918 µM | > 100 µM | > 100 µM |
| C=CCCN(C)Cc1cn(C)c(=O)cc1-c1cnc2c(N[C@@](C)(CO)CCCC)nc(N)nc2c1 [Example 7] | 0.315 µM | > 100 µM | > 100 µM |
| CCCC[C@](C)(CO)Nc1nc(N)nc2cc(-c3cc(=O)[nH]cc3CN3CCSCC3)cnc12 [Example 25] | 0.13 µM | > 100 µM | > 100 µM |
| CCCC[C@](C)(CO)Nc1nc(N)nc2cc(-c3cc(=O)[nH]cc3CN3CCN(C)CC3)cnc12 [Example 22] | 0.98 µM | > 100 µM | > 100 µM |
| C=CCCN(C)Cc1cn(C)c(=O)cc1-c1cnc2c(N[C@](C)(CCCC)CNC(=O)c3cnn(C)c3)nc(N)nc2c1 [Example 45] | 0.097 µM | > 100 µM | > 100 µM |
| CCCC[C@](C)(CO)Nc1nc(N)nc2cc(-c3cc(=O)n(C)cc3CNCCOC)ccc12 [Example 61, (R)-4-(2-Amino-4-((1-hydroxy-2-methylhexan-2-yl)amino)quinazolin-7-yl)-5-(((2-methoxyethyl)amino)methyl)-1-methylpyridin-2(1H)-one] | 0.418 µM | > 100 µM | > 100 µM |
| C=CCCN(C)Cc1cn(C)c(=O)cc1-c1ccc2c(N[C@](C)(CCCC)CNC(=O)c3cnn(C)c3)nc(N)nc2c1 [Example 46] | 0.569 µM | > 100 µM | > 100 µM |
| CC#CCN(C)Cc1c[nH]c(=O)cc1-c1cnc2c(N[C@@](C)(CO)CCCC)nc(N)nc2c1 [Example 27] | 4.25 µM | > 100 µM | > 100 µM |
| CCCC[C@](C)(CO)Nc1nc(N)nc2cc(-c3cc(=O)[nH]cc3CNCCOC)ccc12 [Example 57, (R)-4-(2-Amino-4-((1-hydroxy-2-methylhexan-2-yl)amino)quinazolin-7-yl)-5-(((2-methoxyethyl)amino)methyl)pyridin-2(1H)-one] | 1.86 µM | > 100 µM | > 100 µM |
| C=CCCN(Cc1c[nH]c(=O)cc1-c1cnc2c(N[C@@](C)(CO)CCCC)nc(N)nc2c1)C(C)C [Example 19] | 0.255 µM | > 100 µM | > 100 µM |
